# Measured values taken from US8779158B2, “Trisubstituted pyrazoles as acetylcholine receptor modulators” (Janssen Pharmaceutica NV, priority 2008, dated 2014).
# Assays:
# hα7-wt nAChR = biological target: T1, hα7-wt nAChR (Homo sapiens, UniProt P36544); experiment: Ca2+ flux imaging (FDSS) (Protocol B), potentiation of the choline response; format: cell-based; conditions: Ca2+ assay as described in D.1; for EC50: "<5" = activity did not reach a top plateau at maximal concentration; for Emax: read-out: % Efficacy
# T1 construct: expressed in transfected cells
# Experimental: Ca^2+ Flux Imaging (FDSS) (Protocol B)
# • Hanks buffered saline solution (HBSS, Invitrogen, Belgium), supplemented with 10 mM HEPES (Invitrogen, Belgium), CaCl2 to a final concentration of 5 mM, 0.1% Bovine serum albumin (Sigma-Aldrich NV, Belgium). b) Calcium-Sensitive Dye—Fluo-4AM • Fluo-4AM (Molecular Probes, USA) was dissolved in DMSO containing 10% Pluronic acid (Molecular Probes, USA) to give a stock solution which was diluted in assay buffer supplemented with 5 mM probenicid (Sigma, Aldrich NV, Belgium) to give a final concentration of 2 μM. c) 384-Well Plates • Black 384 well plate black/clear plates, PDL pre-coated (Corning, Incorporated, USA) d) Calcium Flux Measurement • A Functional drug screening system (FDSS, Hamamatsu) was used to measure intracellular free-calcium flux signals. Method
# Monolayers of hα7-wt nAChR-expressing cells were grown in multi-well plates, in particular black-sided, transparent bottomed 384 well plates coated with poly-D-lysine for 24 hours prior to loading with a fluorescent calcium indicator, in a particular embodiment loading with fluo-4AM for up to 120 minutes.
# PAM activity was detected in real time by applying the compounds to be tested to the loaded cells along with a α7 nicotinic receptor agonist during constant monitoring of cellular fluorescence in a FDSS. Compounds giving peak fluorescent responses greater than the response due to agonist alone, were considered to be α7 nAChR PAM's. In a particular embodiment, the α7 nicotinic receptor agonist was choline, a more particular embodiment choline applied at a sub-maximal concentration of 100 μM. In a further setting of the present invention the compounds to be tested were applied prior to the α7 nicotinic receptor agonist, in a particular embodiment up to 10 minutes prior to the agonist.
# A control response to choline was calculated on each plate from the difference in peak in fluorescence in wells receiving either choline or assay buffer alone. Compounds of the present invention were tested at a concentration range from 0.01 μM to 30 μM. Compounds were considered to have an interesting activity when they potentiated the choline signal at least with 200% when tested at a concentration of 30 μM (the efficacy of 100 μM choline was defined as 100% in the absence of a PAM). An EC50 (or pEC50) was determined as a concentration relating to half the maximal effect, when a clear sigmoidal curve with top plateau was obtained.
# [1] = biological target: T2, hα7-wt nAChR-expressing GH4C1 cells (Homo sapiens, UniProt P36544); experiment: Patch-clamp current recording (whole-cell voltage clamp), potentiation of the choline current and PAM type; format: cell-based; set-up: key: Type 0 compounds minimally enhance the effect size of the current elicited by 1 mM choline.; Type 1 compounds enhance the effect size of the current elicited by 1 mM choline but minimally alter the kinetics of the receptor.; Type 2 compounds enhance the effect size of the current elicited by 1 mM choline while reducing the rate and/or the extent of desensitization.; Type 3 compounds enhance the effect size of the current elicited by 1 mM choline. When tested at higher concentrations up to 10 μM they completely inhibit desensitization, in particular a 1 mM choline application of 250 milliseconds.; Type 4 compounds allow for an initial desensitization of the receptor followed by a re-opening of the receptor during agonist application; conditions: 1 mM choline
# T2 construct: expressed in transfected cells
# Experimental: The compounds of the present invention are classified as type 1-4, based on qualitative kinetic properties, as determined by whole-cell voltage-clamp recordings. This classification is based on the effect of an α7 PAM compound, as described hereinbefore, on the signal elicited by an agonist application. In particular, said agonist is choline at a concentration of 1 mM. In a preferred experimental setting, said α7 PAM compound and choline are simultaneously applied to the cell, as described hereinafter. Desensitization is defined as the closure of the receptor upon activation during the application of the agonist in whole-cell voltage-clamp electrophysiology measurements seen as the reduction of the […] current after initial activation by the agonist.
# The definition of the PAM types 1-4 is described hereinafter: • Type 0 compounds minimally enhance the effect size of the current elicited by 1 mM choline. • Type 1 compounds enhance the effect size of the current elicited by 1 mM choline but minimally alter the kinetics of the receptor. In particular, the rate and the extent of desensitization, elicited by the agonist, is not affected. The compound-modulated response to 1 mM choline, therefore, is a close to linear scaling of the 1 mM choline response in absence of the α7 PAM compound. • Type 2 compounds enhance the effect size of the current elicited by 1 mM choline while reducing the rate and/or the extent of desensitization. • Type 3 compounds enhance the effect size of the current elicited by 1 mM choline. […] At low-potency concentrations of the α7 PAM compound, the agonist-induced activation, which is followed by desensitization, can still be separated from the compound-induced re-opening as an initial inward current-maximum. At higher potency concentrations of the α7 PAM compound, the re-opening occurs faster than the closure due to desensitization so that the initial current-maximum disappears.
# A compound was considered to have interesting PAM-like activity when the potentiation of the peak current was at least 200% compared to the control choline response (=100%). Such compounds are classified as belonging to a particular PAM type in the Experimental Part. Compounds not meeting the condition are not classified as belonging to a particular PAM-type.
# The compounds also have a potentiating effect on the response to choline when measured by whole-cell patch clamp electrophysiology in GH4C1 cells stably over-expressing the human wild-type α7 receptor.
# Patch-Clamp Current Recording
# Patch-clamp recording from mammalian cells has provided a powerful means of assessing the function of membrane-bound proteins thought to be subunits of ligand-gated ion channels. Activation of such proteins by endogenous or exogenous ligands cause opening of a pore associated with the receptor through which ions flow down their electrochemical gradient. In the case of the hα7-wt nAChR-expressing GH4C1 recombinant cell line the preferential permeability to calcium of this receptor means that calcium flows into the cell upon activation by ACh, choline and other nicotinic ligands giving rise to a calcium current. Since this receptor rapidly desensitizes in the presence of agonist it is important an application system is used which is capable of very rapid switching of solutions (<100 ms) to prevent partial or full desensitisation of receptor responses coincident with the time of agonist application. Consequently, a second convenient technique to assess the enhancement of nicotinic efficacy is patch-clamp recording from hα7-wt nAChR-expressing GH4C1 cells coupled with a rapid-application system.
# • The external recording solution consisted of 152 mM NaCl, 5 mM KCl, 1 mM MgCl2, 1 mM Calcium, 10 mM HEPES; pH 7.3. […]
# T2 sequence (P36544 23-502): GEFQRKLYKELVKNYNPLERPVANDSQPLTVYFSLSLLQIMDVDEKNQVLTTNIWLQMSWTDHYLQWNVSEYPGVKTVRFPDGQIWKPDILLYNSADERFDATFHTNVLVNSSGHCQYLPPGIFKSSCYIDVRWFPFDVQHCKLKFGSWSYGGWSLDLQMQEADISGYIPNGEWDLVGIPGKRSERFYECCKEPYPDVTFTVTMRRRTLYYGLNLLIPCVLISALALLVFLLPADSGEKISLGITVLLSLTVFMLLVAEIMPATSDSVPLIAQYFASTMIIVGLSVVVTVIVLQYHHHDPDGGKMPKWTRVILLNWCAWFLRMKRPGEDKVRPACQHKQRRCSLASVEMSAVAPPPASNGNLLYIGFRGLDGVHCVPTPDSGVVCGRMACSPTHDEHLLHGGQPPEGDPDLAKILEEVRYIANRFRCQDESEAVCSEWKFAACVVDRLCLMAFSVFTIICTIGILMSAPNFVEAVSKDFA
# T1 sequence (P36544 23-502): as above
SMILES,EC50 (hα7-wt nAChR) [nM],Emax (hα7-wt nAChR) [%],PAM type [1]
"CC[C@H](O)Cn1nc(Nc2ccc(F)c(F)c2)cc1-c1ccnc(COC)c1 [compound 6, (alphaS)-3-[(3,4-difluorophenyl)amino]-alpha-ethyl-5-[2-(methoxymethyl)-4-pyridinyl]-1H-pyrazole-1-ethanol]",1150,,2
"CCNc1cc(-c2cc(Nc3cc(F)cc(F)c3)nn2C[C@@H](O)CC)ccn1 [compound 8, (alphaS)-3-[(3,5-difluorophenyl)amino]-alpha-ethyl-5-[2-(ethylamino)-4-pyridinyl]-1H-pyrazole-1-ethanol]",955,1000,1
"Cc1cnccc1-c1cc(Nc2cc(F)cc(C(F)(F)F)c2)nn1CCC(=O)N(C)C [compound 9, 3-[[3-fluoro-5-(trifluoromethyl)phenyl]amino]-N,N-dimethyl-5-(3-methyl-4-pyridinyl)-1H-pyrazole-1-propanamide]",1020,,4
"CCOC(=O)Cn1nc(Nc2ccc(F)c(F)c2)cc1-c1ccc2c(c1)OCCO2 [compound 10, 3-[(3,4-difluorophenyl)amino]-5-(2,3-dihydro-1,4-benzodioxin-6-yl)-1H-pyrazole-1-acetic acid ethyl ester]",245,,2
COc1ccc(-c2cc(Nc3ccc(F)c(F)c3)nn2CCC(=O)N(C)C)c(Cl)c1 [compound 12],661,,0
CN(C)C(=O)CCn1nc(Nc2ccc(F)c(F)c2)cc1-c1cccnc1 [compound 19],4270,,2
CN(C)C(=O)CCn1nc(Nc2ccc(F)c(F)c2)cc1-c1ccncc1 [compound 21],1230,,3
Cc1ccnc(-c2cc(Nc3ccc(F)c(F)c3)nn2CCC(=O)N(C)C)c1 [compound 22],2450,,2
Cc1ccnc(-c2cc(Nc3ccc(F)c(C(F)(F)F)c3)nn2CCC(=O)N(C)C)c1 [compound 23],631,,2
CCNC(=O)Cn1nc(Nc2ccc(F)c(C(F)(F)F)c2)cc1-c1ccc(C)nc1 [compound 27],1150,,2
Cc1ccc(-c2cc(Nc3ccc(F)c(C(F)(F)F)c3)nn2CCC(=O)N(C)C)cn1 [compound 28],776,,4
CNC(=O)Cn1nc(Nc2cccc(C(F)(F)F)c2)cc1-c1ccnc(C)c1 [compound 32],4270,,2
CNC(=O)Cn1nc(Nc2cccc(OC(F)(F)F)c2)cc1-c1ccnc(C)c1 [compound 35],2450,,2
CCNC(=O)Cn1nc(Nc2cccc(C(F)(F)F)c2)cc1-c1ccnc(C)c1 [compound 36],1910,,2
CCNC(=O)Cn1nc(Nc2ccc(F)c(C(F)(F)F)c2)cc1-c1ccnc(C)c1 [compound 38],575,,2
Cc1cc(-c2cc(Nc3ccc(F)c(F)c3)nn2CCC(=O)N(C)C)ccn1 [compound 40],1000,,2
Cc1cc(-c2cc(Nc3ccc(F)c(C(F)(F)F)c3)nn2C[C@H](C)O)ccn1 [compound 43],1450,700,1
CC[C@H](O)Cn1nc(Nc2ccc(F)c(F)c2)cc1-c1ccnc(C)c1 [compound 45],1230,800,1
CC[C@H](O)Cn1nc(Nc2ccc(F)c(C(F)(F)F)c2)cc1-c1ccnc(C)c1 [compound 46],891,,0
CCNC(=O)Cn1nc(Nc2cc(OC)cc(C(F)(F)F)c2)cc1-c1ccnc(C)c1C [compound 51],3310,,2
Cc1cc(-c2cc(Nc3ccc(F)c(C(F)(F)F)c3)nn2CC(=O)NC2CC2)cc(C)n1 [compound 159],457,842,
Cc1cc(-c2cc(Nc3ccc(F)c(F)c3)nn2CC(=O)NC2CC2)cc(C)n1 [compound 160],525,927,

# Further lines, with some results ahead:
EC50 (hα7-wt nAChR) [nM],Emax (hα7-wt nAChR) [%],SMILES,PAM type [1]
240,737,Cc1cc(-c2cc(Nc3ccc(F)c(C(F)(F)F)c3)nn2CCC(=O)N(C)C)cc(C)n1 [compound 161],
437,750,COc1cc(Nc2cc(-c3cc(C)nc(C)c3)n(CC(=O)NC3CCC3)n2)cc(C(F)(F)F)c1 [compound 162],
263,762,CCNC(=O)Cn1nc(Nc2cc(F)c(F)c(F)c2)cc1-c1cc(C)nc(C)c1 [compound 167],
302,577,Cc1cc(-c2cc(Nc3cccc(Cl)c3F)nn2CC(=O)NC2CC2)cc(C)n1 [compound 169],
148,507,Cc1cc(-c2cc(Nc3ccc(F)c(F)c3)nn2CC(=O)NC2CCC2)cc(C)n1 [compound 171],
186,393,Cc1cc(-c2cc(Nc3cc(F)c(F)c(F)c3)nn2CC(=O)NC2CC2)cc(C)n1 [compound 172],
219,651,Cc1cc(-c2cc(Nc3ccc(F)c(C(F)(F)F)c3)nn2CC(=O)NC2CCC2)cc(C)n1 [compound 174],
126,462,Cc1cc(-c2cc(Nc3cccc(Cl)c3F)nn2CC(=O)NC2CCC2)cc(C)n1 [compound 175],
550,627,Cc1cc(-c2cc(Nc3cccc(C(F)(F)F)c3)nn2CCC(=O)N(C)C)cc(C)n1 [compound 178],
115,793,Cc1cc(-c2cc(Nc3cc(F)c(F)c(F)c3)nn2CC(=O)NC2CCC2)cc(C)n1 [compound 179],
372,768,Cc1cc(-c2cc(Nc3cccc(OC(F)(F)F)c3)nn2CC(=O)NC2CCC2)cc(C)n1 [compound 180],
182,,Cc1cc(-c2cc(Nc3ccc(F)c(F)c3F)nn2CC(=O)NC2CCC2)cc(C)n1 [compound 182],
